Assay results reported in patent publication US9090576B2, “2-substituted-p-quinone derivatives for treatment of oxidative stress diseases” (Edison Pharmaceuticals, Inc., priority 2008, dated 2015).

Legend:
Type in all cases: cell-based
[1] = system: human dermal fibroblasts from Huntington's patients; test: Rescue of BSO-stressed fibroblasts from Huntington's patients (screen as Example A); settings: Fibroblast, BSO-stressed Huntington's fibroblasts (GM 04281), less than about 150 nM, read-out: EC50, protection against Huntington's
Protocol: (§1) A culture with FRDA fibroblasts was started from a 1 ml vial with approximately 500,000 cells stored in liquid nitrogen. Cells were propagated in 10 cm cell culture dishes by splitting every third day in a ratio of 1:3 until nine plates were available. Once confluent, fibroblasts were harvested. For 54 micro titer plates (96 well-MTP) a total of 14.3 million cells (passage eight) were re-suspended in 480 ml medium, corresponding to 100 μl medium with 3,000 cells/well. The remaining cells were distributed in 10 cm cell culture plates (500,000 cells/plate) for propagation. The plates were incubated overnight at 37° C. in an atmosphere with 95% humidity and 5% CO2 to allow attachment of the cells to the culture plate.
(§2) MTP medium (243 μl) was added to a well of the microtiter plate. The test compounds were unfrozen, and 7.5 μl of a 5 mM stock solution was dissolved in the well containing 243 μl medium, resulting in a 150 μM master solution. Serial dilutions from the master solution were made. The period between the single dilution steps was kept as short as possible (generally less than 1 second).
(§3) Plates were kept overnight in the cell culture incubator. The next day, 10 μl of a 10 mM BSO solution were added to the wells, resulting in a 1 mM final BSO concentration. Forty-eight hours later, three plates were examined under a phase-contrast microscope to verify that the cells in the 0% control (wells E1-H1) were clearly dead. The medium from all plates was discarded, and the remaining liquid was removed by gently tapping the plate inversed onto a paper towel.
(§4) 100 μl of PBS containing 1.2 μM Calcein AM were then added to each well. The plates were incubated for 50-70 minutes at room temperature. After that time the PBS was discarded, the plate gently tapped on a paper towel and fluorescence (excitation/emission wavelengths of 485 nm and 525 nm, respectively) was read on a Gemini fluorescence reader. Data was imported into Microsoft Excel (EXCEL is a registered trademark of Microsoft Corporation for a spreadsheet program) and used to calculate the EC50 concentration for each compound.
Compounds of the invention were tested using the screen as described in Example A, but substituting FRDA cells with Huntington's cells obtained from the Coriell Cell Repositories (Camden, N.J.; repository number GM 04281). The compounds were tested for their ability to rescue human dermal fibroblasts from Huntington's patients from oxidative stress.

[2] = system: human dermal fibroblasts from LHON patients; test: Rescue of BSO-stressed fibroblasts from LHON patients (screen as Example A); settings: Fibroblast, BSO-stressed LHON fibroblasts (GM03858), less than about 150 nM, read-out: EC50, protection against LHON
Protocol: as §1, §2, §3, §4
Compounds of the invention were screened as described in Example A, but substituting FRDA cells with Leber's Hereditary Optic Neuropathy (LHON) cells obtained from the Coriell Cell Repositories (Camden, N.J.; repository number GM03858). The compounds were tested for their ability to rescue human dermal fibroblasts from LHON patients from oxidative stress.

[3] = system: Human dermal fibroblasts from Friedreich's Ataxia patients; test: Rescue of BSO-stressed FRDA fibroblasts (Calcein AM viability); settings: BSO-stressed FRDA fibroblasts (GM04078), less than about 150 nM, read-out: EC50, protection against FRDA
Protocol: An initial screen was performed to identify compounds effective for the amelioration of redox disorders. Test samples, 4 reference compounds (Idebenone, decylubiquinone, Trolox and α-tocopherol acetate), and solvent controls were tested for their ability to rescue FRDA fibroblasts stressed by addition of L-buthionine-(S,R)-sulfoximine (BSO), as described in Jauslin et al., Hum. Mol. Genet. 11(24):3055 (2002), Jauslin et al., FASEB J. 17:1972-4 (2003), and International Patent Application WO 2004/003565. […] This specific BSO-mediated cell death can be prevented by administration of antioxidants or molecules involved in the antioxidant pathway, such as α-tocopherol, selenium, or small molecule glutathione peroxidase mimetics. However, antioxidants differ in their potency, i.e. the concentration at which they are able to rescue BSO-stressed FRDA fibroblasts.
MEM (a medium enriched in amino acids and vitamins, catalog no. 1-31F24-I) and Medium 199 (M199, catalog no. 1-21F22-I) with Earle's Balanced Salts, without phenol red, were purchased from Bioconcept. Fetal Calf Serum was obtained from PAA Laboratories. Basic fibroblast growth factor and epidermal growth factor were purchased from PeproTech. Penicillin-streptomycin-glutamine mix, L-buthionine (S,R)-sulfoximine, (+)-α-tocopherol acetate, decylubiquinone, and insulin from bovine pancreas were purchased from Sigma. Trolox (6-hydroxy-2,5,7,8-tetramethylchromane-2-carboxylic acid) was obtained from Fluka. Idebenone was obtained from Chemo Iberica. Calcein AM was purchased from Molecular Probes. Cell culture medium was made by combining 125 ml M199 EBS, 50 ml Fetal Calf Serum, 100 U/ml penicillin, 100 μg/ml streptomycin, 2 mM glutamine, 10 μg/ml insulin, 10 ng/ml EGF, and 10 ng/ml bFGF; MEM EBS was added to make the volume up to 500 ml. A 10 mM BSO solution was prepared by dissolving 444 mg BSO in 200 ml of medium with subsequent filter-sterilization. During the course of the experiments, this solution was stored at +4° C. The cells were obtained from the Coriell Cell Repositories (Camden, N.J.; repository number GM04078) and grown in 10 cm tissue culture plates. Every third day, they were split at a 1:3 ratio.
The test samples were supplied in 1.5 ml glass vials. The compounds were diluted with DMSO, ethanol or PBS to result in a 5 mM stock solution. Once dissolved, they were stored at −20° C. Reference antioxidants (Idebenone, decylubiquinone, α-tocopherol acetate and trolox) were dissolved in DMSO.
Test samples were screened according to the following protocol:
as §1, §2
Plates were kept overnight in the cell culture incubator. The next day, 10 μl of a 10 mM BSO solution were added to the wells, resulting in a 1 mM final BSO concentration. Forty-eight hours later, three plates were examined under a phase-contrast microscope to verify that the cells in the 0% control (wells E1-H1) were clearly dead. […]

[4] = system: human dermal fibroblasts from Parkinson's Disease patients; test: Rescue of BSO-stressed fibroblasts from Parkinson's Disease patients (screen as Example A); settings: Fibroblast, BSO-stressed Parkinson's Disease fibroblasts (AG20439), less than about 150 nM, read-out: EC50, protection against PD
Protocol: as §1, §2, §3, §4
Compounds of the invention were screened as described in Example A, but substituting FRDA cells with Parkinson's Disease (PD) cells obtained from the Coriell Cell Repositories (Camden, N.J.; repository number AG20439). The compounds were tested for their ability to rescue human dermal fibroblasts from Parkinson's Disease patients from oxidative stress.

Measured: EC50

CC1=C(CCNC(N)=O)C(=O)C(c2ccc(Cl)cc2)=C(C)C1=O [1-(2-(5-(4-chlorophenyl)-2,4-dimethyl-3,6-dioxocyclohexa-1,4-dienyl)ethyl)urea]
< 150 nM: [1] | [2] | [3] | [4]

CC1=C(C)C(=O)C(CCNC(=O)c2ccc(C(F)(F)F)cc2)=C(C)C1=O [4-(Trifluoromethyl)-N-(2-(2,4,5-trimethyl-3,6-dioxocyclohexa-1,4-dienyl)ethyl)benzamide]
< 150 nM: [2] | [3] | [4]

CC1=C(C)C(=O)C(CCNC(=O)c2ccc(Cl)cc2)=C(C)C1=O [4-chloro-N-(2-(2,4,5-trimethyl-3,6-dioxocyclohexa-1,4-dienyl)ethyl)benzamide]
< 150 nM: [2] | [3] | [4]

CC1=C(C)C(=O)C(CCNC(=O)c2ccc(F)cc2)=C(C)C1=O [4-fluoro-N-(2-(2,4,5-trimethyl-3,6-dioxocyclohexa-1,4-dienyl)ethyl)benzamide]
< 150 nM: [2] | [3] | [4]

CC1=C(C)C(=O)C(CCCC(=O)NC(C)(C)CO)=C(C)C1=O [N-(1-hydroxy-2-methylpropan-2-yl)-4-(2,4,5-trimethyl-3,6-dioxocyclohexa-1,4-dienyl)butanamide]
< 150 nM: [3] | [4]

CC1=C(C)C(=O)C(CCC(C)(C)O)=C(CCNS(=O)(=O)c2ccc(C)cc2)C1=O [N-(2-(2-(3-hydroxy-3-methylbutyl)-4,5-dimethyl-3,6-dioxocyclohexa-1,4-dienyl)ethyl)-4-methylbenzenesulfonamide]
< 150 nM: [1] | [2] | [3]

CC1=C(C)C(=O)C(CCC(C)(C)O)=C(CCNC(=O)c2ccccc2)C1=O [N-(2-(2-(3-hydroxy-3-methylbutyl)-4,5-dimethyl-3,6-dioxocyclohexa-1,4-dienyl)ethyl)-benzamide]
< 150 nM: [1] | [2] | [3]

CC1=C(C)C(=O)C(CCC(C)(C)O)=C(CCNS(C)(=O)=O)C1=O [N-(2-(2-(3-hydroxy-3-methylbutyl)-4,5-dimethyl-3,6-dioxocyclohexa-1,4-dienyl)ethyl)methanesulfonamide]
< 150 nM: [1] | [2] | [3]

CC1=C(CCNS(=O)(=O)c2ccc(F)cc2)C(=O)C(c2ccc(Cl)cc2)=C(C)C1=O [N-(2-(5-(4-chlorophenyl)-2,4-dimethyl-3,6-dioxocyclohexa-1,4-dienyl)ethyl)-4-fluorobenzenesulfonamide]
< 150 nM: [1] | [3] | [4]

CC1=C(C)C(=O)C(CCCC(=O)NCCc2ccncc2)=C(C)C1=O [N-(2-(pyridin-4-yl)ethyl)-4-(2,4,5-trimethyl-3,6-dioxocyclohexa-1,4-dienyl)butanamide]
< 150 nM: [1] | [2] | [3]

CC1=C(C)C(=O)C(CCCC(=O)Nc2ccccc2N)=C(C)C1=O [N-(2-aminophenyl)-4-(2,4,5-trimethyl-3,6-dioxocyclohexa-1,4-dienyl)butanamide]
< 150 nM: [1] | [2] | [3]

CC1=C(C)C(=O)C(CCCC(=O)Nc2ccccc2C#N)=C(C)C1=O [N-(2-cyanophenyl)-4-(2,4,5-trimethyl-3,6-dioxocyclohexa-1,4-dienyl)butanamide]
< 150 nM: [1] | [2] | [3]

CC1=C(C)C(=O)C(CCC(C)C(=O)NCCO)=C(C)C1=O (stereo not drawn) [N-(2-hydroxyethyl)-2-methyl-4-(2,4,5-trimethyl-3,6-dioxocyclohexa-1,4-dienyl)butanamide]
< 150 nM: [1] | [2] | [3]

CC1=C(C)C(=O)C(CCCC(=O)NCCO)=C(C)C1=O [N-(2-hydroxyethyl)-4-(2,4,5-trimethyl-3,6-dioxocyclohexa-1,4-dienyl)butanamide]
< 150 nM: [1] | [2] | [3]

CC1=C(C)C(=O)C(CCCC(=O)Nc2cc(Cl)cc(Cl)c2)=C(C)C1=O [N-(3,5-dichlorophenyl)-4-(2,4,5-trimethyl-3,6-dioxocyclohexa-1,4-dienyl)butanamide]
< 150 nM: [1] | [2] | [3]

CC1=C(C)C(=O)C(CCC(C)C(=O)Nc2ccc(F)cc2)=C(C)C1=O (stereo not drawn) [N-(4-fluorophenyl)-2-methyl-4-(2,4,5-trimethyl-3,6-dioxocyclohexa-1,4-dienyl)butanamide]
< 150 nM: [1] | [2] | [3]

CC1=C(C)C(=O)C(CCCC(=O)Nc2cccnc2)=C(C)C1=O [N-(pyridin-3-yl)-4-(2,4,5-trimethyl-3,6-dioxocyclohexa-1,4-dienyl)butanamide]
< 150 nM: [1] | [2] | [3]

CC1=C(C)C(=O)C(CCCC(=O)NCc2cccnc2)=C(C)C1=O [N-(pyridin-3-ylmethyl)-4-(2,4,5-trimethyl-3,6-dioxocyclohexa-1,4-dienyl)butanamide]
< 150 nM: [1] | [2] | [3]
